Laboratory results published in EP0371388A2, “Acridine derivatives” (FUJISAWA PHARMACEUTICAL CO., LTD., priority 1988, dated 1990).

Columns and labels:
[1] = tested on: deficit of memory induced by cycloheximide; experiment: Passive avoidance test; assay type: in vivo; conditions: Dose 0.032 mg/kg i.p.; ddY strain male mice given cycloheximide 30 mg/kg S.C.; step-down latency 24 hours after training
From the text: 6-Weeks old ddY strain male mice (20 per group) were used. The effect of the test compound on deficit of memory induced by cycloheximide (a protein synthesis inhibitor) in passive avoidance task was examined.
The apparatus consists of a grid floor enclosed by a transparent acryl glass wall each section of which was 30 cm². At the center of this grid a wooden platform of 4 x 4 x 4 cm was fixed. This apparatus was set in a wooden semisoundproof box of 35 x 35 x 90 cm fitted with a 15W tungsten lamp.
Each mouse in groups (A), (B) and (C) was placed on the platform.
When the mouse stepped down from the platform and placed all its paws on the grid floor, an intermittent electrical footshock (1Hz, 0.5 sec, 60V, DC) was delivered for 15 seconds through the grid floor. […]
24 Hours after the training, each mouse was placed again on the platform and the response latency to step down from the platform was measured to an extent of 300 seconds at the longest.
Results were recorded as the mean response latency of step down for each experimental group of mice. […]

acetylcholinesterase = target: T1, acetylcholinesterase (Rattus norvegicus, UniProt P37136); experiment: Inhibition of acetylcholinesterase (enzyme assay); assay type: biochemical
T1 construct: The acetylcholinesterase used in this test was obtained from rat's corpus striatum; from tissue; host or cells: rat corpus striatum
T1 sequence (P37136 32-614): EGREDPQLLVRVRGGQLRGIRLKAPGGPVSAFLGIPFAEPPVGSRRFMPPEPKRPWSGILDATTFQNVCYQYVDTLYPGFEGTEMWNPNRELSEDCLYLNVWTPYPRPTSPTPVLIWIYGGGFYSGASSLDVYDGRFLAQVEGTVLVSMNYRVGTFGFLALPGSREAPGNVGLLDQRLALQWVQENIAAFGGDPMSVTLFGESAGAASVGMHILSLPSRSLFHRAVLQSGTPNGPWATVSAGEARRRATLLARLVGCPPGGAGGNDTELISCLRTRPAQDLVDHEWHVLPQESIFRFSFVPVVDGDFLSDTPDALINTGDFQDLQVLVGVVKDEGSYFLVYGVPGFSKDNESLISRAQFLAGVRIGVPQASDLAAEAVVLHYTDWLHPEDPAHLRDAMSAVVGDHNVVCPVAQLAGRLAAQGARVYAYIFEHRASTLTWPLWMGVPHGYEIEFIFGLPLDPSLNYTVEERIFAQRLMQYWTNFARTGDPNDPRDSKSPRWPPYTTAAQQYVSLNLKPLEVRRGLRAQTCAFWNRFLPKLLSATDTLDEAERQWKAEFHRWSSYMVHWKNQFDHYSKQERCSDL
Method: The ability to inhibit acetylcholinesterase was determined by the method (enzyme assay) described in Clinica Chimica Acta, 115 (1981) 163-170. The acetylcholinesterase used in this test was obtained from rat's corpus striatum.

SMILES | Percentage of Recovery (%) [1] | IC50 (acetylcholinesterase)
CC1(C)CCc2c(nc3cc(Cl)ccc3c2N)C1 [9-Amino-6-chloro-3,3-dimethyl-1,2,3,4-tetrahydroacridine] | 95% | –
Cc1ccc2c(N)c3c(nc2c1)CC(C)(C)CC3O (racemic) [(±)-9-Amino-1-hydroxy-3,3,6-trimethyl-1,2,3,4-tetrahydroacridine] | – | 870 nM
